Test results published in ChEMBL document CHEMBL1155562, “Workup-dependent formation of 5-lipoxygenase inhibitory boswellic acid analogues” (J Nat Prod, 2000).

Target: T1, Polyunsaturated fatty acid 5-lipoxygenase (Homo sapiens, UniProt P09917)
T1 sequence (P09917 whole entry): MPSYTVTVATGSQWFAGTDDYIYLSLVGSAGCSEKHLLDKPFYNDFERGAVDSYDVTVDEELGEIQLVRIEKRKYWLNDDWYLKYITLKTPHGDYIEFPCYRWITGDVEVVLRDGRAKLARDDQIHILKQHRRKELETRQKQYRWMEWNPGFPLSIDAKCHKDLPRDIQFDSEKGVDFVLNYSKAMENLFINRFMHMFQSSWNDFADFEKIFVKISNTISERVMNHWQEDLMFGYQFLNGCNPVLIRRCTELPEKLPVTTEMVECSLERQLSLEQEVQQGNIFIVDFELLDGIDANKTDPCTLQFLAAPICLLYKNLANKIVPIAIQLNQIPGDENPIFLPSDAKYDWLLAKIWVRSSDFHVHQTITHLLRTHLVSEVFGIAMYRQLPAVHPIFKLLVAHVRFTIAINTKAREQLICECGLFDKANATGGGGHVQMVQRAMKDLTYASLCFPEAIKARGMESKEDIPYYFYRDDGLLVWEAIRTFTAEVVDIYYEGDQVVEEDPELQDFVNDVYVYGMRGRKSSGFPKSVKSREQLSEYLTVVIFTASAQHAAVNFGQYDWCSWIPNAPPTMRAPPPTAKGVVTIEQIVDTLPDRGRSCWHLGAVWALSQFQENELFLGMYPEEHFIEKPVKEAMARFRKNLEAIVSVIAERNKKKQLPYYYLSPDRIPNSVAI
Test: Inhibition of lipoxygenase 5 product formation from endogenous substrate in Calcium and ionophore-stimulated polymorphonuclear leukocyte

IC50 [nM]	SMILES
750	CC(=O)O[C@@H]1CC[C@]2(C)C3=CC=C4[C@@H]5[C@@H](C)[C@H](C)CC[C@]5(C)CC[C@@]4(C)[C@]3(C)CC[C@H]2[C@@]1(C)C(=O)O
3000	C[C@H]1[C@H](C)CC[C@]2(C)CC[C@]3(C)C(=CC(=O)[C@@H]4[C@@]5(C)CC[C@@H](O)[C@](C)(C(=O)O)[C@@H]5CC[C@]43C)[C@H]12 [11-KETO BOSWELLIC ACID]
2700	CC(=O)O[C@@H]1CC[C@@]2(C)[C@@H](CC[C@]3(C)[C@@H]2C(=O)C=C2[C@@H]4[C@@H](C)[C@H](C)CC[C@]4(C)CC[C@]23C)[C@@]1(C)C(=O)O [AKBA]
